Reference: patent publication US4826819A, “Piperidine analgesics” (priority 1986, dated 1989)
pKi: −log10 of the molar value. Counter-ions that a name gives are not always drawn. Like-named read-outs stand apart in the source and are kept apart here.

Key:
[1] = biological target: T1, μ opioid receptor (μ sites) (Cavia porcellus, UniProt A0ACM8Q262); assay: Opiate receptor binding to μ sites (3H-DAGO)
T1 construct: 3H-DAGO displacement
Procedure: (§1) Radio receptor binding to μ and k sites is performed on fresh guinea pig brain homogenate prepared according to Kosterlitz. (1981).
(§2) Whole brain without cerebellum is homogenized in 50 mM, Tris-buffer (pH 7.4 at 0° C.) and centrifuged at 49,000×g×10 min. The pellet is then resuspended in the same buffer, incubated at 37° C. for 45 min. and centrifuged again.
(§3) 1.9 ml of the final homogenate (1:100 in Tris-pH 7.4, 0° C.) is used for the binding assay.
Binding to μ sites (Magnan J., 1982)
^3 H [D-Ala^2, MePhe^4, Gly-ol^5 ] Enkephalin (^3 H-DAGO), an enkephalin analogue that binds selectively to μ-receptors, is added to the biological substrate and incubated at 25° C. for 40 min., filtered through Whatman GF-C and washed with ice-cold Tris-buffer.
The filters are then dried, solubilized in Filtercount and the radioactivity monitored. Non specific binding is determined in the presence of 10^-6 M Naloxone.
(§4) For the calculation of the kinetic parameters of the binding of labelled and unlabelled ligands, the equilibrium dissociation constant (KD), and the inhibition constant (Ki) and the maximum number of binding sites (B max) are determined from saturation curves and competition experiments (Hill 1910; Scatchard 1949; Cheng and Prusoff 1973; Gillan et al. 1980).
(§5) A concentration of radioligand near KD is used in the binding assays evaluating our compounds.

[2] = Mouse Tail-flick test (analgesic activity); type: in vivo, mouse (male Charles River mice); conditions: for % Protection (percent number of mice doubling the initial reaction time): 1 mg Kg^-1, 30 min after dosing
[3] = biological target: T2, K (Kappa) opioid receptor (K sites) (Cavia porcellus, UniProt P41144); assay: Opiate receptor binding to K sites (tritiated Ethylketocyclazocine); set-up: species or system guinea pig
T2 construct: performed on fresh guinea pig brain homogenate; from tissue; host or cells: guinea pig whole brain without cerebellum, homogenate
Procedure: as §1, §2, §3
Binding to K sites (Magnan J., 1982)
The binding of tritiated Ethylketocyclazocine to brain homogenate is measured in the presence of 100 nanomolar D-Ala-D-LeuEnkephalin (DADLE) and 100 nanomolar DAGO, added to saturate the δ and μ opioid receptors respectively.
Final homogenate with solutions of the cold ligand and of the labelled ligand is incubated for 40 min at 25° C., filtered through Whatman GF/C glass filter discs and washed.
The radioactivity bound to the filters is counted by liquid scintillation spectrophotometry.
MR 2266,500 nM is utilized to determine the saturable binding.
as §4, §5

[4] = sc, 0.5 h, subcutaneous, read-out: ED50 subcutaneous
[5] = guinea pig brain homogenate, 25° C., 40 min, read-out: Ki, opiate receptor binding, μ
[6] = guinea pig brain homogenate, tritiated Ethylketocyclazocine with 100 nM DADLE and 100 nM DAGO, 25° C., 40 min, read-out: Ki, opiate receptor binding, K

T1 sequence (A0ACM8Q262 1-400): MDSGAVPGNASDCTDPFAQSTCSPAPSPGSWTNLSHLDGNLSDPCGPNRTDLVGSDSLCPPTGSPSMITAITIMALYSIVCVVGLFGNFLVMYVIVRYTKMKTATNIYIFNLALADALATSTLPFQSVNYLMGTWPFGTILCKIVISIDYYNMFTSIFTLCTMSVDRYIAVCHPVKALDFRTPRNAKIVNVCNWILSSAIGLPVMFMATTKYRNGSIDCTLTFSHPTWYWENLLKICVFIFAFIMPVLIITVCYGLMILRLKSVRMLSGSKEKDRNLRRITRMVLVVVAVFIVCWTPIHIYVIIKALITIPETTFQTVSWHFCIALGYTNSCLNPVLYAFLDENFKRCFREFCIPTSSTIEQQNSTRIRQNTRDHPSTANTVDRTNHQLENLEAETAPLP
T2 sequence (P41144 whole entry): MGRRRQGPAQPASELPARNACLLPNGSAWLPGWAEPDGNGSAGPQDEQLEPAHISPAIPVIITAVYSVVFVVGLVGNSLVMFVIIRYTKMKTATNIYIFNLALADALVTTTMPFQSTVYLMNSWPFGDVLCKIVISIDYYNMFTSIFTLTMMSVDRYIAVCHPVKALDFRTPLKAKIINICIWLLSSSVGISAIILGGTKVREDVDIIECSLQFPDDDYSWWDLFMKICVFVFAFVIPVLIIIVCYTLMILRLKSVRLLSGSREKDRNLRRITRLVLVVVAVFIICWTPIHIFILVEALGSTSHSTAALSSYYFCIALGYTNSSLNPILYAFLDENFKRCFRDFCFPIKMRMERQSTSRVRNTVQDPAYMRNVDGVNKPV

SMILES | pKi ([1]; read-out: Ki, opiate receptor binding, μ, guinea pig brain homogenate, 25° C., 40 min) | ED50 ([2]; oral (os), read-out: ED50 oral) | ED50 [2, 4] | pKi [3] | pKi [1, 5] | pKi [3, 6] | % Protection (percent number of mice doubling the initial reaction time) ([2]; subcutaneous)
O=C(Cc1ccc(C(F)(F)F)cc1)N1CCCC[C@H]1CN1CCCC1 [Example 3, (2S)-1-(4-trifluoromethylphenylacetyl)-2-(1-pyrrolidinylmethyl) piperidine hydrochloride sesquihydrate] | 5.60 | 0.67 mg/kg | 0.14 mg/kg | 8.39 |  |  | 
O=C(Cc1cccc([N+](=O)[O-])c1)N1CCCCC1CN1CCCC1 (racemic) [Example 1, (2R,S)-1-(3-nitrophenylacetyl)-2-(1-Pyrrolidinylmethyl) piperidine hydrochloride] |  |  | 0.97 mg/kg |  | < 5.00 | 8.22 | 
O=C(Cc1ccc(Br)cc1)N1CCCCC1CN1CCCC1 (racemic) [Example 6, (2R,S)-1-(4-bromophenylacetyl)-2-(1-pyrrolidinylmethyl)piperidine hydrochloride] |  | 4.12 mg/kg | 0.52 mg/kg |  | 5.50 | 8.18 | 80%
O=C(Cc1ccc([N+](=O)[O-])cc1)N1CCCCC1CN1CCCC1 (racemic) [Example 4, (2R,S)-1-(4-nitrophenylacetyl)-2-(1-pyrrolidinylmethyl)piperidine hydrochloride] |  | 5.45 mg/kg | 0.55 mg/kg |  | 4.89 | 7.42 | 80%
O=C(Cc1ccc(C(F)(F)F)cc1)N1CCCCC1CN1CCCC1 (racemic) [Example 5, (2R,S)-1-(4-trifluoronethylphenylacetyl)-2-(1pyrrolidinylmethyl)piperidine hydrochloride] |  | 1.08 mg/kg | 0.23 mg/kg |  | 5.51 | 8.44 | 100%
O=C(Cc1cccc(C(F)(F)F)c1)N1CCCCC1CN1CCCC1 (racemic) [Example 2, (2R,S)-1-(3-trifluoromethylphenylacetyl)-2-(1-pyrrolidinylmethyl)piperidinehydrochloride hemihydrate] |  | 4.61 mg/kg | 0.43 mg/kg |  | < 5.00 | 8.51 | 
